Reference: US20250326732A1 (Pretzel Therapeutics, Inc., priority 2021, published 2025)

Target: POLRMT (Homo sapiens (Human), UniProt O00411)
Test: homogeneous TR-FRET assay of mitochondrial transcription (inhibition of POLRMT)
Type: biochemical
Conditions: 7.5 nM POLRMT, 15 nM TFB2M, 30 nM TFAM, 0.5 nM DNA template, 500 μM NTPs, 37° C. for 60 minutes
Procedure: The ability of some compounds of the present invention to inhibit POLRMT were determined in a homogeneous TR-FRET Assay using high-throughput screening in a 384-well plate format. […] Detection of the product is facilitated by hybridization of two DNA-oligonucleotide probes to specific and adjacent sequences within the RNA product sequence. Upon annealing of the probes, two fluorophores are coupled directly to an acceptor nucleotide probe (ATTO647, 5′), or introduced via a coupled streptavidin with a biotinylated donor nucleotide probe (Europium cryptate) that is brought into sufficient proximity to serve as a fluorescence-donor-acceptor pair. Thus, a FRET signal at 665 nm is generated upon excitation at 340 nm.
The DNA template is restriction linearized proximal to the promotor 3′-end (pUC-LSP). […] No nucleotide triphosphate mix is added to negative control samples. Microplates with compounds to be tested in the assay are prepared from 10 mM compound stocks in 100% DMSO, equal amounts of DMSO without any compound are added to positive control and negative control samples.
During the incubation, a mix of the detection reagents is prepared in a buffer such that the enzymatic reaction is terminated due to chelating of Mg-ions and increased ionic strength, containing 50 mM Tris-HCl (pH 7.5), 700 mM NaCl, 20 mM EDTA, and 0.01% (w/v) Tween-20. Europium-streptavidin is pre-incubated with a 200-fold molar excess of a random sequence oligonucleotide to block unspecific binding of oligo, for two hours at ambient temperature in the dark. Afterwards, the blocked Europium-streptavidin is kept on ice until use.
At the end of the enzymatic reaction time, 5 μL detection oligo mix in the detection buffer is added, and assay plates are mixed and kept at ambient temperature for one hour, protected from light. The concentration of the Acceptor nucleotide oligo (e.g., ATTO647N-5′-[…]-3′) and Donor nucleotide oligo (e.g., bio-5′-[…](-bio)[…]-bio-3′) in each assay well is 1 nM, and 3 nM, respectively.
After incubation with oligo mix, 5 μL of pre-blocked Europium-streptavidin reagent is dispensed to each assay well, assay plates are again mixed and kept at ambient temperature for one hour, protected from light.
The generated signal is measured with BMG Pherastar microtiter plate reader with a TRF light unit, using excitation at 340 nm, an integration time of 200 μs, and a delay time of 100 μs, before detection at 620 nm and 665 nm. The ratio of donor- and acceptor-fluorescence is used as a measure of the generated transcript product (i.e. enzymatic activity).

Sequence of POLRMT (O00411 42-1230): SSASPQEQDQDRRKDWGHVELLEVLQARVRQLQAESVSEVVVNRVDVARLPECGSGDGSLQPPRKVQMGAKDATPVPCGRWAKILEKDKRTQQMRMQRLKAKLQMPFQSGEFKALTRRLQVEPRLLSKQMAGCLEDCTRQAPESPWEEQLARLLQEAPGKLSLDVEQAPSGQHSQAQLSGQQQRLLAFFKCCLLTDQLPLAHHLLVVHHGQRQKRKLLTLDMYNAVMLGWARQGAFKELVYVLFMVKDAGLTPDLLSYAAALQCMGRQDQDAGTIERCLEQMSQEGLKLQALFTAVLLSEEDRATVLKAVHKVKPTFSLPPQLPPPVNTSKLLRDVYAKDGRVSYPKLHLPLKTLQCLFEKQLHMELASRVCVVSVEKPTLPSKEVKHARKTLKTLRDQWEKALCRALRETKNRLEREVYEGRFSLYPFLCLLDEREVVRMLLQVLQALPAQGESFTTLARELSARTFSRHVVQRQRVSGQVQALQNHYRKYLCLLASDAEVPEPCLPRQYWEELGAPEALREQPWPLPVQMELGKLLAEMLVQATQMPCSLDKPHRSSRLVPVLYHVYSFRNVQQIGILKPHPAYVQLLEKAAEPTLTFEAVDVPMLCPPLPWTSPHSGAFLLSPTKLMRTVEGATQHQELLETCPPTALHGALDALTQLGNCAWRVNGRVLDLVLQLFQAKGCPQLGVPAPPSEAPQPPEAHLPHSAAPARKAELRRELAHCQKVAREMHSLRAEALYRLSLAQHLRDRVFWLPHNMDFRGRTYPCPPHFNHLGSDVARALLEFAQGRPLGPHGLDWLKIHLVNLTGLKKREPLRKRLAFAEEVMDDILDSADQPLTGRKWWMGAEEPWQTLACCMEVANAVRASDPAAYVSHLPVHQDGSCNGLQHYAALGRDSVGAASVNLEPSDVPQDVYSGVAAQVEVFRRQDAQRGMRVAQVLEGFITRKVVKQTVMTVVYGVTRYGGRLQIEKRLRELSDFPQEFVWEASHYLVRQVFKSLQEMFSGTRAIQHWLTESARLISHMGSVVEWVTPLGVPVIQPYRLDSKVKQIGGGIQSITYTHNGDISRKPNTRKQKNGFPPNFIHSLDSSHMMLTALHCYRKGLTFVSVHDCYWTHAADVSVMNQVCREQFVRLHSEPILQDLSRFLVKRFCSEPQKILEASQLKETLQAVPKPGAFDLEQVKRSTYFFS

Structure (SMILES) | IC50
Cc1ccccc1-c1cc(=O)oc2cc(CC(C)C(=O)N3CC[C@H](C(=O)O)C3)ccc12 (single isomer, unassigned) [Example 99] | 400 nM
CCNC(=O)[C@@H](C)Nc1ccc2c(-c3ccc(F)cc3Cl)cc(=O)oc2c1 [Example 48, (R)-2-((4-(2-chloro-4-fluorophenyl)-2-oxo-2H-chromen-7-yl)amino)-N-ethylpropanamide] | 3000 nM
Cc1ccccc1-c1cc(=O)oc2cc(N(C)Cc3ccnn3C)ccc12 [Example 193, 7-(methyl((1-methyl-1H-pyrazol-5-yl)methyl)amino)-4-(o-tolyl)-2H-chromen-2-one] | 100 nM
COCC(C#N)Cc1ccc2c(-c3ccccc3C)cc(=O)oc2c1 (stereo not shown) [Example 201, 3-methoxy-2-((2-oxo-4-(o-tolyl)-2H-chromen-7-yl)methyl)propanenitrile] | 2000 nM
CN(C)c1ccc2c(-c3ccc(F)cc3Cl)cc(=O)oc2c1 [Example 31, 4-(2-chloro-4-fluorophenyl)-7-(dimethylamino)-2H-chromen-2-one] | 400 nM
Cc1ccccc1-c1cc(=O)oc2cc([C@H]3C[C@H]3C(=O)N(C)C)ccc12 (relative stereo) [Example 234, (cis)-N,N-dimethyl-2-(2-oxo-4-(o-tolyl)-2H-chromen-7-yl)cyclopropane-1-carboxamide] | 3000 nM
CN(Cc1ccc2c(-c3ccc(F)cc3Cl)cc(=O)oc2c1)C(=O)N1CCCCC1 [Example 05, N-((4-(2-chloro-4-fluorophenyl)-2-oxo-2H-chromen-7-yl)methyl)-N-methylpiperidine-1-carboxamide] | 4000 nM
CCOC(=O)/C(C)=C/c1ccc2c(-c3ccc(F)cc3Cl)cc(=O)oc2c1 [Example 14, ethyl (E)-3-(4-(2-chloro-4-fluorophenyl)-2-oxo-2H-chromen-7-yl)-2-methylacrylate] | 18000 nM
Cc1ccccc1-c1cc(=O)oc2cc(C(=O)N(C)C)ccc12 [Example 34, N,N-dimethyl-2-oxo-4-(o-tolyl)-2H-chromene-7-carboxamide] | 2000 nM
Cc1ccccc1-c1cc(=O)oc2cc(N(C)Cc3ccccc3)ccc12 [Example 126, 7-[benzyl(methyl)amino]-4-(o-tolyl) chromen-2-one] | 50 nM
Cc1ccccc1-c1cc(=O)oc2cc(N[C@@H](CC(C)C)C(=O)O)ccc12 [Example 73, (2-oxo-4-(o-tolyl)-2H-chromen-7-yl)-L-leucine] | 3000 nM
CN(CC(=O)O)c1ccc2c(-c3ccccc3)cc(=O)oc2c1 [Example 101, N-methyl-N-(2-oxo-4-phenyl-2H-chromen-7-yl)glycine] | 10000 nM
Cc1ccccc1-c1cc(=O)oc2cc(CC(=O)O)ccc12 [Example 233, 2-(2-oxo-4-(o-tolyl)-2H-chromen-7-yl) acetic acid] | 5000 nM
CNC(=O)C(C)Cc1ccc2c(-c3ccccc3C)cc(=O)oc2c1 (single isomer, unassigned) [Example 66, N,2-dimethyl-3-(2-oxo-4-(o-tolyl)-2H-chromen-7-yl)propanamide] | 500 nM
COC[C@H]1CCN(C(=O)c2ccc3c(-c4ccccc4C)cc(=O)oc3c2)C1 [Example 123, (S)-7-(3-(methoxymethyl)pyrrolidine-1-carbonyl)-4-(o-tolyl)-2H-chromen-2-one] | 16000 nM
Cc1ccccc1-c1cc(=O)oc2cc(N(C)CCC(N)=O)ccc12 [Example 133, 3-(methyl(2-oxo-4-(o-tolyl)-2H-chromen-7-yl)amino)propanamide] | 700 nM
CNC(=O)[C@H]1CCCN(C(=O)C(C)Cc2ccc3c(-c4ccccc4C)cc(=O)oc3c2)C1 (single isomer, unassigned) [Example 93] | 17000 nM
CCOC(C)c1ccc2c(-c3ccc(F)cc3Cl)cc(=O)oc2c1 (single isomer, unassigned) [Example 41, 4-(2-chloro-4-fluorophenyl)-7-(1-ethoxyethyl)-2H-chromen-2-one] | 1000 nM
CCOC(=O)CN(C)c1ccc2c(-c3ccccc3C)cc(=O)oc2c1 [Example 142, ethyl N-methyl-N-(2-oxo-4-(o-tolyl)-2H-chromen-7-yl)glycinate] | 20 nM
